How the values were obtained:
Test in all cases: relative viability (nuclei count vs DMSO), 5 days (fraction); higher = more cells survive
[1] = system: NCI-H1355
Method in brief: (§1)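 Lung cancer cell lines, seeded in 1536-well plates, were treated the following day by pin tool with a single drug or with five library-drug doses (not always all listed) in √10 steps on top of a fixed anchor-drug dose. Cells were fixed and nuclei stained in one step after 5 days, and nuclei were counted. Relative viability is the nuclei count for treated wells divided by that for vehicle wells, reported as medians of duplicate plates.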

[2] = system: NCI-H1793
Method in brief: as §1

[3] = system: NCI-H358
Method in brief: as §1

[4] = system: BEN
Method in brief: as §1

[5] = system: CAL-12T
Method in brief: as §1

[6] = system: NCI-H1975
Method in brief: as §1

[7] = system: NCI-H2023
Method in brief: as §1

[8] = system: HCC-366
Method in brief: as §1

[9] = system: SK-LU-1
Method in brief: as §1

[10] = system: NCI-H1563
Method in brief: as §1

[11] = system: NCI-H1437
Method in brief: as §1

[12] = system: LU99A
Method in brief: as §1

[13] = system: NCI-H2085
Method in brief: as §1

[14] = system: NCI-H838
Method in brief: as §1

[15] = system: COR-L23
Method in brief: as §1

[16] = system: NCI-H1651
Method in brief: as §1

[17] = system: NCI-H441
Method in brief: as §1

[18] = system: NCI-H460
Method in brief: as §1

[19] = system: NCI-H1734
Method in brief: as §1

[20] = system: LOU-NH91
Method in brief: as §1

## COc1cc2nccc(Oc3ccc(NC(=O)Nc4cc(C)on4)c(Cl)c3)c2cc1OC [Tivozanib] + Cc1nc(NC(=O)N2CCC[C@H]2C(N)=O)sc1-c1ccnc(C(C)(C)C(F)(F)F)c1 [Alpelisib] (partner 2 µM)
[1]; first compound 0.005 µM
  relative viability: 0.766
[1]; first compound 0.01581 µM
  relative viability: 0.693
[1]; first compound 0.05 µM
  relative viability: 0.887
[1]; first compound 0.5 µM
  relative viability: 0.882
[2]; first compound 0.005 µM
  relative viability: 0.643
[2]; first compound 0.01581 µM
  relative viability: 0.617
[2]; first compound 0.05 µM
  relative viability: 0.729
[2]; first compound 0.5 µM
  relative viability: 0.705
[3]; first compound 0.005 µM
  relative viability: 0.736
[3]; first compound 0.01581 µM
  relative viability: 0.803
[3]; first compound 0.05 µM
  relative viability: 0.771
[3]; first compound 0.1581 µM
  relative viability: 0.73
[3]; first compound 0.5 µM
  relative viability: 0.94
[4]; first compound 0.005 µM
  relative viability: 0.991
[4]; first compound 0.01581 µM
  relative viability: 1.04
[4]; first compound 0.05 µM
  relative viability: 1.03
[4]; first compound 0.5 µM
  relative viability: 1.05
[5]; first compound 0.005 µM
  relative viability: 1.11
[5]; first compound 0.01581 µM
  relative viability: 1.07
[5]; first compound 0.05 µM
  relative viability: 1.31
[5]; first compound 0.5 µM
  relative viability: 1.32
[6]; first compound 0.005 µM
  relative viability: 0.587
[6]; first compound 0.01581 µM
  relative viability: 0.652
[6]; first compound 0.05 µM
  relative viability: 0.672
[6]; first compound 0.1581 µM
  relative viability: 0.62
[6]; first compound 0.5 µM
  relative viability: 0.643
[7]; first compound 0.005 µM
  relative viability: 0.553
[7]; first compound 0.01581 µM
  relative viability: 0.578
[7]; first compound 0.05 µM
  relative viability: 0.634
[7]; first compound 0.1581 µM
  relative viability: 0.589
[7]; first compound 0.5 µM
  relative viability: 0.61
[8]; first compound 0.005 µM
  relative viability: 0.297
[8]; first compound 0.01581 µM
  relative viability: 0.448
[8]; first compound 0.05 µM
  relative viability: 0.381
[8]; first compound 0.1581 µM
  relative viability: 0.51
[8]; first compound 0.5 µM
  relative viability: 0.388
[9]; first compound 0.005 µM
  relative viability: 1.01
[9]; first compound 0.01581 µM
  relative viability: 1.01
[9]; first compound 0.05 µM
  relative viability: 1.12
[9]; first compound 0.1581 µM
  relative viability: 0.645
[9]; first compound 0.5 µM
  relative viability: 0.907
[10]; first compound 0.005 µM
  relative viability: 0.926
[10]; first compound 0.01581 µM
  relative viability: 0.976
[10]; first compound 0.05 µM
  relative viability: 0.972
[10]; first compound 0.1581 µM
  relative viability: 0.843
[10]; first compound 0.5 µM
  relative viability: 0.835
[11]; first compound 0.005 µM
  relative viability: 1.02
[11]; first compound 0.01581 µM
  relative viability: 1
[11]; first compound 0.05 µM
  relative viability: 1
[11]; first compound 0.1581 µM
  relative viability: 0.943
[11]; first compound 0.5 µM
  relative viability: 0.959
[12]; first compound 0.005 µM
  relative viability: 0.484
[12]; first compound 0.01581 µM
  relative viability: 0.555
[12]; first compound 0.05 µM
  relative viability: 0.521
[12]; first compound 0.5 µM
  relative viability: 0.469
[13]; first compound 0.005 µM
  relative viability: 1.02
[13]; first compound 0.01581 µM
  relative viability: 0.978
[13]; first compound 0.05 µM
  relative viability: 0.905
[13]; first compound 0.1581 µM
  relative viability: 0.963
[13]; first compound 0.5 µM
  relative viability: 0.642
[14]; first compound 0.005 µM
  relative viability: 0.984
[14]; first compound 0.01581 µM
  relative viability: 1.04
[14]; first compound 0.05 µM
  relative viability: 1.04
[14]; first compound 0.5 µM
  relative viability: 1.03
[15]; first compound 0.005 µM
  relative viability: 0.687
[15]; first compound 0.01581 µM
  relative viability: 0.778
[15]; first compound 0.05 µM
  relative viability: 0.931
[15]; first compound 0.1581 µM
  relative viability: 0.709
[15]; first compound 0.5 µM
  relative viability: 0.582
[16]; first compound 0.005 µM
  relative viability: 0.985
[16]; first compound 0.01581 µM
  relative viability: 0.842
[16]; first compound 0.05 µM
  relative viability: 0.781
[16]; first compound 0.1581 µM
  relative viability: 0.879
[16]; first compound 0.5 µM
  relative viability: 0.889
[17]; first compound 0.005 µM
  relative viability: 0.711
[17]; first compound 0.01581 µM
  relative viability: 0.452
[17]; first compound 0.05 µM
  relative viability: 0.57
[17]; first compound 0.1581 µM
  relative viability: 0.632
[17]; first compound 0.5 µM
  relative viability: 0.56
[18]; first compound 0.005 µM
  relative viability: 0.483
[18]; first compound 0.01581 µM
  relative viability: 0.422
[18]; first compound 0.05 µM
  relative viability: 0.454
[18]; first compound 0.1581 µM
  relative viability: 0.609
[18]; first compound 0.5 µM
  relative viability: 0.543
[19]; first compound 0.005 µM
  relative viability: 0.656
[19]; first compound 0.01581 µM
  relative viability: 0.66
[19]; first compound 0.05 µM
  relative viability: 0.702
[19]; first compound 0.1581 µM
  relative viability: 0.536
[19]; first compound 0.5 µM
  relative viability: 0.727
[20]; first compound 0.005 µM
  relative viability: 0.69
[20]; first compound 0.01581 µM
  relative viability: 0.698
[20]; first compound 0.05 µM
  relative viability: 0.778
[20]; first compound 0.1581 µM
  relative viability: 0.732
[20]; first compound 0.5 µM
  relative viability: 0.752

— the supplement of paper PMC10307832
